In assay [1] the target is Cyclin-dependent kinase 7 (Homo sapiens, UniProt P50613).
The target of assay [2] is Inosine-5'-monophosphate dehydrogenase 2 (Homo sapiens, UniProt P12268).
Assay [3] concerns the target Mitogen-activated protein kinase 11 (Homo sapiens, UniProt Q15759).
For assay [4], the target named is DNA topoisomerase 2-beta (Homo sapiens, UniProt Q02880).
Assay [5] deals with Ras-related protein Rab-6A (Homo sapiens, UniProt P20340).
Assay [6] deals with T1, Breakpoint cluster region protein (Homo sapiens, UniProt P11274).
T1 sequence (P11274 whole entry): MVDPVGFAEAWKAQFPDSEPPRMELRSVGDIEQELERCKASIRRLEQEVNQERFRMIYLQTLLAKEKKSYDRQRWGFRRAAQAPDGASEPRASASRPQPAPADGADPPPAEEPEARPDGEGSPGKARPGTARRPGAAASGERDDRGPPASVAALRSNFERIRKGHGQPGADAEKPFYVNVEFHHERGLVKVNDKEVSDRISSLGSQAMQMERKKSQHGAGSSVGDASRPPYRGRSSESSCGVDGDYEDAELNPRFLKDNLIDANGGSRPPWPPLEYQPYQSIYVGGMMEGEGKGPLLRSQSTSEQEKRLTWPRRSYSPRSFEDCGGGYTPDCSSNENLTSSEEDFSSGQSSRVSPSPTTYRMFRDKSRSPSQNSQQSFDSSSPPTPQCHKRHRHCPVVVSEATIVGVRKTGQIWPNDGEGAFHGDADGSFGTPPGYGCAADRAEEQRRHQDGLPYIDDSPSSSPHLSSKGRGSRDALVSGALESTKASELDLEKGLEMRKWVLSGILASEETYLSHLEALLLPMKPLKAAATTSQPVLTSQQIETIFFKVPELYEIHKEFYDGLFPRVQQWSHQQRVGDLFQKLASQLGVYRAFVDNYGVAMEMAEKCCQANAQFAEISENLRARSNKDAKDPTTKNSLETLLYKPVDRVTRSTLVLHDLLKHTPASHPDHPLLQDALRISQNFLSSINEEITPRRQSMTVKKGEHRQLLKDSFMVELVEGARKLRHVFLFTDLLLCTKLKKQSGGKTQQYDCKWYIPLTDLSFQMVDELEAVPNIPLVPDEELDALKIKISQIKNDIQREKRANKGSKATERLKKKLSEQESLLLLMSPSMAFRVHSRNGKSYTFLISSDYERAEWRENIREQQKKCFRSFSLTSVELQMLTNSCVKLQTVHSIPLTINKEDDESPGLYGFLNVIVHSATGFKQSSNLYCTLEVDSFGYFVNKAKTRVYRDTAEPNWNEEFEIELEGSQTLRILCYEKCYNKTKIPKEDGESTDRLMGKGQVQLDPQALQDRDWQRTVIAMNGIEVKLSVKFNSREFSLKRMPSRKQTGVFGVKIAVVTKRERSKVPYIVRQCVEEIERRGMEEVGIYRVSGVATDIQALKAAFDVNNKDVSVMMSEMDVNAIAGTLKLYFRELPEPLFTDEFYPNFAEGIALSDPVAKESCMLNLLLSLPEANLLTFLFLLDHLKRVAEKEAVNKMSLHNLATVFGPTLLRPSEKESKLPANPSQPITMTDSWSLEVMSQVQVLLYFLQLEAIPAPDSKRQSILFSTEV

Assay [7] addresses T2, Dual specificity mitogen-activated protein kinase kinase 3 (Homo sapiens, UniProt P46734).
T2 sequence (P46734 whole entry): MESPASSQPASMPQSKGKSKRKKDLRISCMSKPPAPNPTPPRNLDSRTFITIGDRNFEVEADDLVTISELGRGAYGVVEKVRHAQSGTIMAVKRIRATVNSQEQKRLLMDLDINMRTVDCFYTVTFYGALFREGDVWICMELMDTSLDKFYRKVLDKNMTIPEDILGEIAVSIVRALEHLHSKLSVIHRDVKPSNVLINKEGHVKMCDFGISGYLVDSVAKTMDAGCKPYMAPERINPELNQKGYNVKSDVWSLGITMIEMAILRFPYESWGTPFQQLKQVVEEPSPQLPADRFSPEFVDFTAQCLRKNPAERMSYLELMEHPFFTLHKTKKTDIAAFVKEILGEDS

Assay [8] concerns the target T3, Serine/threonine-protein kinase Nek9 (Homo sapiens, UniProt Q8TD19).
T3 sequence (Q8TD19 whole entry): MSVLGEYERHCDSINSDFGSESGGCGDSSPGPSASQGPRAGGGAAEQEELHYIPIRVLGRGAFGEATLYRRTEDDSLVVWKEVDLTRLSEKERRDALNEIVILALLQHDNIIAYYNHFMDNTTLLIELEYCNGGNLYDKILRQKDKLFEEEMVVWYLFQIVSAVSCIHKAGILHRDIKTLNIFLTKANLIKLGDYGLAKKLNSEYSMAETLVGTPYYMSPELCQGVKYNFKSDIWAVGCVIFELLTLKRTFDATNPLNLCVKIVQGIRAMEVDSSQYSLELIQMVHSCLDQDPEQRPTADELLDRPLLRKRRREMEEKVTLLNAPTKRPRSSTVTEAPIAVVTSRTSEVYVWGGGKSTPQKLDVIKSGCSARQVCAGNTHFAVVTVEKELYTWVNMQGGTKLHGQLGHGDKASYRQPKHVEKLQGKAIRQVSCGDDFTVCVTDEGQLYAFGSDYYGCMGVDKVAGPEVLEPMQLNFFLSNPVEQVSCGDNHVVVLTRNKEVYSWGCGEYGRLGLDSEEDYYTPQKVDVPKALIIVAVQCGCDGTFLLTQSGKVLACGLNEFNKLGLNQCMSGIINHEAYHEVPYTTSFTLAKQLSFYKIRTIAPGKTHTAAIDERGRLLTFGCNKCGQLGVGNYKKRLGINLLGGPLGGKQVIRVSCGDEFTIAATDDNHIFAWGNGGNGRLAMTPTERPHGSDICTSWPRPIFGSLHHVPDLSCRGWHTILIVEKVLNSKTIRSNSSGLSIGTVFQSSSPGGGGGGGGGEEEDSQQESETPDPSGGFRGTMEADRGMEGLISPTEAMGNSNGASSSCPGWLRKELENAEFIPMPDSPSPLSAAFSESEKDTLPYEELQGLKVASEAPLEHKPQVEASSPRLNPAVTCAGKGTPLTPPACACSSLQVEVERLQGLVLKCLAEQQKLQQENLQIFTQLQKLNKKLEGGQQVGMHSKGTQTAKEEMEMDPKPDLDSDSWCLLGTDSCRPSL

Assay [9] concerns the target U5 small nuclear ribonucleoprotein 200 kDa helicase (Homo sapiens, UniProt O75643).
For assay [10], the target named is cAMP-dependent protein kinase catalytic subunit beta (Homo sapiens, UniProt P22694).
Assay [11] has as its target Protein kinase C alpha type (Homo sapiens, UniProt P17252).

Calls of active or inactive are those of the source.
Note: in the data inactive means no Kd found up to 30 µM.

Mitogen-activated protein kinase 11, sequence (Q15759 whole entry): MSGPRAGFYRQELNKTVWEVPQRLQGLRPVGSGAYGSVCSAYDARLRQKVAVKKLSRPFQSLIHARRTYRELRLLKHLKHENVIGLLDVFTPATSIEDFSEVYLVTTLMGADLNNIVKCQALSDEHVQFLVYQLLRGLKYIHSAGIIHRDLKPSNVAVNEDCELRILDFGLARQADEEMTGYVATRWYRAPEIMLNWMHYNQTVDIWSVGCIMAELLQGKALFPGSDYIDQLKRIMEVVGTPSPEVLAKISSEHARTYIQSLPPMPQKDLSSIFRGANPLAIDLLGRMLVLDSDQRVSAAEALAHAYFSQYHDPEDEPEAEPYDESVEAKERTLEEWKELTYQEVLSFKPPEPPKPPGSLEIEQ
Cyclin-dependent kinase 7, sequence (P50613 whole entry): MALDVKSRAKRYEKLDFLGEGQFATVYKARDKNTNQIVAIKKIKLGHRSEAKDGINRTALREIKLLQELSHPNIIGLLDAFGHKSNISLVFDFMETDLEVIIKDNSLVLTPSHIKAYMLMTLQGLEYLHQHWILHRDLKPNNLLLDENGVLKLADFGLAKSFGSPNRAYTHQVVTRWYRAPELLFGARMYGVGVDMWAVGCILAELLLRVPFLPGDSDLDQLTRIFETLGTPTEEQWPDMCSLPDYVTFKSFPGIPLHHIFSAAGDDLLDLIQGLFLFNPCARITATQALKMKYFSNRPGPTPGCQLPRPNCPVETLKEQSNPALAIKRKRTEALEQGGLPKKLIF
U5 small nuclear ribonucleoprotein 200 kDa helicase, sequence (O75643 whole entry): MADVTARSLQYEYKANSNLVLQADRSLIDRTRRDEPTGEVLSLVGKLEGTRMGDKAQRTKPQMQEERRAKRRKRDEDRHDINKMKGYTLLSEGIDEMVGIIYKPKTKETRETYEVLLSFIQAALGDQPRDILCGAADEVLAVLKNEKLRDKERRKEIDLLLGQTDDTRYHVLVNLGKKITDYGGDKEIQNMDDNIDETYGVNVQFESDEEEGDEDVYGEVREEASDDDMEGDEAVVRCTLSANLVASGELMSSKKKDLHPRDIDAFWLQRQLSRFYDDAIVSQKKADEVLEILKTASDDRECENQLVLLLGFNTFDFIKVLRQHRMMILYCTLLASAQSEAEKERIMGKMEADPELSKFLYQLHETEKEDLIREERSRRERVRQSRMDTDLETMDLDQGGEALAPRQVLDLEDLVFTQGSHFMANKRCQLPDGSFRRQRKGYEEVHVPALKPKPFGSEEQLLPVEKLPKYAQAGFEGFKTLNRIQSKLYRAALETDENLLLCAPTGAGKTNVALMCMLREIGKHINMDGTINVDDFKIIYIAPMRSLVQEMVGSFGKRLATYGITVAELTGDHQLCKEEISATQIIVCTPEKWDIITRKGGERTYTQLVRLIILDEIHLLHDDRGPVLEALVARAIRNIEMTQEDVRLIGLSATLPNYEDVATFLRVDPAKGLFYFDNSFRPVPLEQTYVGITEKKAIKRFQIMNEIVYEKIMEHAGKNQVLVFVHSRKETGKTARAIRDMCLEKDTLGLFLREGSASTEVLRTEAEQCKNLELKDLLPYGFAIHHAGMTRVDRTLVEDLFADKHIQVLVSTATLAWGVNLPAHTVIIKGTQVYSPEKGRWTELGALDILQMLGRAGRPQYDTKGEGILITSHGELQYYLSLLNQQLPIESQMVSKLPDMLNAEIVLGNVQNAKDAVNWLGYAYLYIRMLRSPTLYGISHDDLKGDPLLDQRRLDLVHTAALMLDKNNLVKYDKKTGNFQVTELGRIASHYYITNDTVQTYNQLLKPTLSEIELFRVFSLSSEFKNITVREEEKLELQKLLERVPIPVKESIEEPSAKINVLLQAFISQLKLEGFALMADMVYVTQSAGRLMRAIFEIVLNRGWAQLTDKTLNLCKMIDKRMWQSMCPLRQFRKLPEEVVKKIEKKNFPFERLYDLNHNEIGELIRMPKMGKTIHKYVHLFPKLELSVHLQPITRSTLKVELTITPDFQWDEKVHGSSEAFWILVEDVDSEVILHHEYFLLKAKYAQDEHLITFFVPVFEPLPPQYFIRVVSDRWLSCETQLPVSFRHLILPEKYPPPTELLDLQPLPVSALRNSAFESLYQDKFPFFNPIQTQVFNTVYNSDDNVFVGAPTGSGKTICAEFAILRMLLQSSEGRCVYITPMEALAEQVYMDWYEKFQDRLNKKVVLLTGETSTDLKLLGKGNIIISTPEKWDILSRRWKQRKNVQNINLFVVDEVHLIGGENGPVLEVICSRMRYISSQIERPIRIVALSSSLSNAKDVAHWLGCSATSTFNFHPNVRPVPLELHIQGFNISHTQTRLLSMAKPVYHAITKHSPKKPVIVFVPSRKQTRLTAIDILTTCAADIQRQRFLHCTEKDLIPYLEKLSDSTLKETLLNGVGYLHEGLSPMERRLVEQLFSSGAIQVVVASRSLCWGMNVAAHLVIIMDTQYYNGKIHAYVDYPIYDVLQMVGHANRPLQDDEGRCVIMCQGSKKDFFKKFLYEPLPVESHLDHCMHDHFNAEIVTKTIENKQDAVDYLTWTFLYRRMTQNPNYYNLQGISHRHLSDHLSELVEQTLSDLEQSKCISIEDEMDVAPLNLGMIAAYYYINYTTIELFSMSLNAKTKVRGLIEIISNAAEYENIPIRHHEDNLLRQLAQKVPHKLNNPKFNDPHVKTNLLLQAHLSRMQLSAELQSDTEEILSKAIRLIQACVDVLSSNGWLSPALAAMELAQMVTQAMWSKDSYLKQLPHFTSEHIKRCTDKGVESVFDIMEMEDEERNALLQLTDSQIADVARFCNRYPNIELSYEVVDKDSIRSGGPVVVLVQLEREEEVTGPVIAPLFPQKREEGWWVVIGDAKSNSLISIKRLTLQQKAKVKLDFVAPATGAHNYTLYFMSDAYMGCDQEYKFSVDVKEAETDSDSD
Ras-related protein Rab-6A, sequence (P20340 whole entry): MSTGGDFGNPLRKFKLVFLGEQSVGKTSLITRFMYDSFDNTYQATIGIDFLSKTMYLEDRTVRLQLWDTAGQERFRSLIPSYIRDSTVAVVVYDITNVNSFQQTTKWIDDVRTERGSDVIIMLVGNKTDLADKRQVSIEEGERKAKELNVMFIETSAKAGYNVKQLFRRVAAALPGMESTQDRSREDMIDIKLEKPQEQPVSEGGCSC
DNA topoisomerase 2-beta, sequence (Q02880 whole entry): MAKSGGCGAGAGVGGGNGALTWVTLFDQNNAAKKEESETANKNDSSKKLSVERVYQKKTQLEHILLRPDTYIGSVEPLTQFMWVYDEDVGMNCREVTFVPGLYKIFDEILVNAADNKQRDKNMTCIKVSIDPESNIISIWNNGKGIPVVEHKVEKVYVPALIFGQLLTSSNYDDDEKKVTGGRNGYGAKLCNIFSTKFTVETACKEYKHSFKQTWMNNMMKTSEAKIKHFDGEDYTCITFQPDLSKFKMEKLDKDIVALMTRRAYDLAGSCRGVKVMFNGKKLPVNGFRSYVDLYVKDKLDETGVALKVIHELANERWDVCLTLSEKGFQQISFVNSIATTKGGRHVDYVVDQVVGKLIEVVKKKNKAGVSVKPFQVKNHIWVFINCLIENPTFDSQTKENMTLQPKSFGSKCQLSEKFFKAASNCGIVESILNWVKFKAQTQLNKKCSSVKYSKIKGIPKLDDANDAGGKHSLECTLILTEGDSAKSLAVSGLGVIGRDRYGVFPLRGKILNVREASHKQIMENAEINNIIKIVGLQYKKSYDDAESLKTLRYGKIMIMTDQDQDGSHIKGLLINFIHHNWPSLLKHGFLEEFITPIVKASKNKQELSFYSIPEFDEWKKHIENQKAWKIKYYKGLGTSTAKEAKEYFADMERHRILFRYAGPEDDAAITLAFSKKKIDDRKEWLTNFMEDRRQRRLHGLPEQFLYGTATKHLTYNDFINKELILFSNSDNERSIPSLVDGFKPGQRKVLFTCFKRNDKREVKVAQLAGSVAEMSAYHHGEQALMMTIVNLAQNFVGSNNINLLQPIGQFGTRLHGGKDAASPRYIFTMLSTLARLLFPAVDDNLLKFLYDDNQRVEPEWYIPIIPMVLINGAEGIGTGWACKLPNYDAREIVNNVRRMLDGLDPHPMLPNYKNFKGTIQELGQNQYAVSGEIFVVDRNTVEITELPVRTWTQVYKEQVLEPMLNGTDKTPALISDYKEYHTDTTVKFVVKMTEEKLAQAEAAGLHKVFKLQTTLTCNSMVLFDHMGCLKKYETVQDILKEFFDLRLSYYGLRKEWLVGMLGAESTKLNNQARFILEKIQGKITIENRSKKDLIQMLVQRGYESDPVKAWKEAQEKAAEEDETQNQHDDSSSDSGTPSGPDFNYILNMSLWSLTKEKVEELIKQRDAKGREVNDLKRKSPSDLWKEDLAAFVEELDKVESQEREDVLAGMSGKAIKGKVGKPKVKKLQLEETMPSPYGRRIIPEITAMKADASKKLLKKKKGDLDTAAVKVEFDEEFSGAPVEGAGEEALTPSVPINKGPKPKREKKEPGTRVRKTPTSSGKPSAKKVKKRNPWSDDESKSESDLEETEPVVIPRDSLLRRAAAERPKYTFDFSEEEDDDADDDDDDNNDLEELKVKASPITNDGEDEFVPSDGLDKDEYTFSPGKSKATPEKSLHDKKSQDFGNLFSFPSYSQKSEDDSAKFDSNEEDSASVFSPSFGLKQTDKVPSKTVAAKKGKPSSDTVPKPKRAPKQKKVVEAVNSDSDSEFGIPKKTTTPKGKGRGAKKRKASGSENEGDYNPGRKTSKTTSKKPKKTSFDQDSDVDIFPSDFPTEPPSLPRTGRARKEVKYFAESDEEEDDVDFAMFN

One may read the Kd as the free concentration of one partner at which half of the binding sites on the other are occupied at equilibrium, for simple one-to-one binding. With `N#CC1(c2ccc(NC(=O)c3cccnc3NCc3ccncc3)cc2)CCCC1` [RIVOCERANIB], the Kd in assay [1], in assay [2], in assay [3], in assay [4], in assay [5] and in [6] was > 30 µM (inactive) each time. Moreover, the Kd in assay [7], in assay [8], in assay [9], in assay [10] and in assay [11] was > 30 µM (inactive) in each case.

For `O=c1[nH]ccc2cc(OC3CCNCC3)ccc12` [SAR-407899 FREE BASE], the Kd in assay [1], in [2], in assay [3], in assay [4], in assay [5] and in assay [6] was > 30 µM (inactive) throughout. Besides, the Kd in assay [7], in assay [8], in assay [9], in assay [10] and in [11] was > 30 µM (inactive) in each case.

For `CN1CCN(CCOc2cc(OC3CCOCC3)c3c(Nc4c(Cl)ccc5c4OCO5)ncnc3c2)CC1` [SARACATINIB], the Kd is > 30 µM (inactive) in assay [1]; > 30 µM (inactive) in assay [2]; > 30 µM (inactive) in [3]; > 30 µM (inactive) in [4]; > 30 µM (inactive) in assay [5]; 0.016 µM (active) in assay [6]. The Kd in [7], in assay [8], in [9], in [10] and in [11] was > 30 µM (inactive) each time.

`Cn1cc(-c2cnn3c(N)c(Br)c([C@@H]4CCCNC4)nc23)cn1` [SCH-900776]: the Kd in assay [1], in assay [2], in assay [3], in assay [4], in [5] and in [6] was > 30 µM (inactive) each time. Also, the Kd in [7], in assay [8], in assay [9], in assay [10] and in assay [11] was > 30 µM (inactive) in each case.

As to `CO[C@H]1C[C@@H]2CC[C@@H](C)[C@@](O)(O2)C(=O)C(=O)N2CCCC[C@H]2C(=O)O[C@H]([C@H](C)C[C@@H]2CC[C@@H](O)[C@H](OC)C2)CC(=O)[C@H](C)/C=C(\C)[C@@H](O)[C@@H](OC)C(=O)[C@H](C)C[C@H](C)/C=C/C=C/C=C/1C` [SIROLIMUS], the Kd in assay [1], in [2], in [3], in assay [4], in assay [5] and in assay [6] was > 30 µM (inactive) throughout. Also, the Kd in [7], in assay [8], in [9], in assay [10] and in assay [11] was > 30 µM (inactive) in each case.

Take `CO[C@H]1C[C@@H]2CC[C@@H](C)[C@@](O)(O2)C(=O)C(=O)N2CCCC[C@H]2C(=O)O[C@H]([C@H](C)C[C@@H]2CC[C@@H](OC(=O)C(C)(CO)CO)[C@H](OC)C2)CC(=O)[C@H](C)/C=C(\C)[C@@H](O)[C@@H](OC)C(=O)[C@H](C)C[C@H](C)/C=C/C=C/C=C/1C` [TEMSIROLIMUS]: the Kd in assay [1], in [2], in assay [3], in assay [4], in assay [5] and in [6] was > 30 µM (inactive) throughout. For the same molecule, the Kd in [7], in [8], in [9], in assay [10] and in [11] was > 30 µM (inactive) in each case.

`COc1cc2c(Nc3ccc(Cl)c(Cl)c3F)ncnc2cc1OC[C@@H]1C[C@@H]2CN(C)C[C@@H]2C1` [TESEVATINIB]: the Kd in assay [1] was > 30 µM (inactive); in [2] it was > 30 µM (inactive); in [3], > 30 µM (inactive); in assay [4], > 30 µM (inactive); in assay [5], > 30 µM (inactive); in [6] it was 0.113 µM (active). Also, the Kd in assay [7], in [8], in assay [9], in assay [10] and in assay [11] was > 30 µM (inactive) throughout.

Turning to `O=C(Cc1ccc(-c2ccc(OCCN3CCOCC3)cc2)cn1)NCc1ccccc1` [TIRBANIBULIN], the Kd in assay [1], in [2], in [3], in assay [4], in [5] and in [6] was > 30 µM (inactive) throughout. Further, the Kd in assay [7], in [8], in assay [9], in assay [10] and in [11] was > 30 µM (inactive) throughout.

Values taken from ChEMBL document CHEMBL3991601, “The target landscape of clinical kinase drugs” (Science, 2017).
